Values joined by “and” are separate entries in the source; they are usually repeats but may differ in a detail not shown here. Equal values may be shown once. Inconclusive results are not listed. Active and inactive are the calls of the source.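 How the source made its calls: active means Compounds whose fitted IC50 for cell-normalized streptokinase activity falls within a set log distance above the top dose; inactive means IC50 further above the top dose than that limit.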
Target: S. pyogenes M1 GAS, streptokinase activity/viability, OD405, 6 h
Test: S. pyogenes streptokinase expression inhibitors, potency, dose response, plasminogen activation absorbance, OD405 (AID 1914)

| SMILES | IC50 |
| --- | --- |
| Cc1ccc(C[n+]2c(-c3ccc(C)cc3)cc(-c3ccc(C)cc3)cc2-c2ccc(C)cc2)cc1 | 3.61 µM |
| CN(C)c1ccnc2c[cH-]cc12.[Fe].c1ccc(-[c-]2[c-](-c3ccccc3)[c-](-c3ccccc3)[c-](-c3ccccc3)[c-]2-c2ccccc2)cc1 (stereo unspecified) | 2.11 µM and 2.6 µM |
| CCCCCCCCCCCCCCCCn1cc[n+](C)c1 | > 15 µM (inactive) |
| Cc1ccc(C(O)(C(=O)NNc2ccc3ccccc3n2)c2ccc(C)cc2)cc1 | > 15 µM (inactive) |
| CCN1/C(=C\C=C\C2=[N+](CC)c3ccccc3C2(C)C)C(C)(C)c2ccccc21 | 15.6 µM |
| CNC(CC(C)C)C(=O)NC1C(=O)NC(CC(N)=O)C(=O)NC2C(=O)NC3C(=O)NC(C(=O)NC(C(=O)O)c4cc(O)cc(O)c4-c4cc3ccc4O)C(O)c3ccc(c(Cl)c3)Oc3cc2cc(c3OC2OC(CO)C(O)C(O)C2OC2CC(C)(N)C(O)C(C)O2)Oc2ccc(cc2Cl)C1O (stereo unspecified) | > 15 µM (inactive) |

— PubChem BioAssay AID1914 (Broad Institute, 2009)
